# Data: article PMC8037182, “Solvothermal Synthesis of Multiple Dihydropyrimidinones at a Time as Inhibitors of Eg5” (Molecules, 2021)
# Several values for one entry are separate records, joined by “and”; a condition that tells them apart may be missing. Identical values can stand only once.
# System: L929 cell line
# Assay: Cytotoxicity MTS assay, L929 cell line
# Format: cell-based
# Conditions: for OD490 values, Mean / OD490 values, Well 1 / OD490 values, Well 2 / OD490 values, Well 3 / OD490, single wells / OD490 Mean: L929 cell line; for IC50: MTS assay, 24 h exposure, ordinary fibroblast, not cancer cells; for OD490, single wells / OD490 Mean: MTS; for OD490, single wells: Well 1-3; for OD490 Mean: mean of 3 wells
# Experimental: The positive compounds (IC50 < 100 μM) obtained from the primary Eg5 motor protein ATPase assay were tested for antiproliferative activity in vitro against Caco-2 cell line, Hela cell line, L929 cell line and T24 cell line by performing MTS assay. Cells were introduced into 96-well plates at a density of 1000 cells per well. After 24 h incubation, the cells were exposed with compounds at final concentrations ranging from 0.5 to 100 µM for 24 h. DMSO was used at a final concentration of 0.025% as blank control, monastrol was used as the positive control. Then 20 µL (CellTiter 96® AQueous One Solution Promega, Madison, WI, USA) reagent was added in each well. After 2 h at 37 °C in a 80% humidified, 5% CO2 atmosphere, the absorbance at 490 nm was recorded using a microplate reader (BIO-RAD iMark^TM). The results were obtained in three independent duplicate experiments. The primary data were shown in Supplementary Materials Tables S4–S7. The IC50 values for these compounds were calculated from a non-linear regression graph plotted between the percentage of cell viability and concentration with SPSS17.0 software.
structure (smiles),measurement,setting,value
COC(=O)c1[nH]c(C2NC(=S)NC(C)=C2C(=O)c2ccccc2)c(C(=O)OC)c1C (centres unmarked) [D14],"OD490 values, Mean","1μM, first assay",1.2798
same,"OD490 values, Well 1","1μM, first assay",1.2932
same,"OD490 values, Well 2","1μM, first assay",1.2928
same,"OD490 values, Well 3","1μM, first assay",1.2533
same,"OD490 values, Mean","1μM, second assay",1.4907
same,"OD490 values, Well 1","1μM, second assay",1.4325
same,"OD490 values, Well 2","1μM, second assay",1.3987
same,"OD490 values, Well 3","1μM, second assay",1.6410
same,"OD490 values, Mean","1μM, third assay",1.6023
same,"OD490 values, Well 1","1μM, third assay",1.5874
same,"OD490 values, Well 2","1μM, third assay",1.6622
same,"OD490 values, Well 3","1μM, third assay",1.5574
same,"OD490 values, Mean","1.5μM, first assay",1.2729
same,"OD490 values, Well 1","1.5μM, first assay",1.2563
same,"OD490 values, Well 2","1.5μM, first assay",1.3177
same,"OD490 values, Well 3","1.5μM, first assay",1.2448
same,"OD490 values, Mean","1.5μM, second assay",1.4657
same,"OD490 values, Well 1","1.5μM, second assay",1.4258
same,"OD490 values, Well 2","1.5μM, second assay",1.4302
same,"OD490 values, Well 3","1.5μM, second assay",1.5412
same,"OD490 values, Mean","1.5μM, third assay",1.5678
same,"OD490 values, Well 1","1.5μM, third assay",1.5254
same,"OD490 values, Well 2","1.5μM, third assay",1.5988
same,"OD490 values, Well 3","1.5μM, third assay",1.5793
same,"OD490 values, Mean","10μM, first assay",1.2551
same,"OD490 values, Well 1","10μM, first assay",1.2039
same,"OD490 values, Well 2","10μM, first assay",1.3650
same,"OD490 values, Well 3","10μM, first assay",1.1963
same,"OD490 values, Mean","10μM, second assay",1.4237
same,"OD490 values, Well 1","10μM, second assay",1.3365
same,"OD490 values, Well 2","10μM, second assay",1.5325
same,"OD490 values, Well 3","10μM, second assay",1.4022
same,"OD490 values, Mean","10μM, third assay",1.5660
same,"OD490 values, Well 1","10μM, third assay",1.5254
same,"OD490 values, Well 2","10μM, third assay",1.6200
same,"OD490 values, Well 3","10μM, third assay",1.5525
same,"OD490 values, Mean","25μM, first assay",1.1670
same,"OD490 values, Well 1","25μM, first assay",1.1764
same,"OD490 values, Well 2","25μM, first assay",1.2795
same,"OD490 values, Well 3","25μM, first assay",1.0451
same,"OD490 values, Mean","25μM, second assay",1.2993
same,"OD490 values, Well 1","25μM, second assay",1.3065
same,"OD490 values, Well 2","25μM, second assay",1.2547
same,"OD490 values, Well 3","25μM, second assay",1.3366
same,"OD490 values, Mean","25μM, third assay",1.5294
same,"OD490 values, Well 1","25μM, third assay",1.4424
same,"OD490 values, Well 2","25μM, third assay",1.5235
same,"OD490 values, Well 3","25μM, third assay",1.6222
same,"OD490 values, Mean","50μM, first assay",1.0826
same,"OD490 values, Well 1","50μM, first assay",0.8914
same,"OD490 values, Well 2","50μM, first assay",1.1616
same,"OD490 values, Well 3","50μM, first assay",1.1948
same,"OD490 values, Mean","50μM, second assay",1.1536
same,"OD490 values, Well 1","50μM, second assay",1.1241
same,"OD490 values, Well 2","50μM, second assay",1.2101
same,"OD490 values, Well 3","50μM, second assay",1.1265
same,"OD490 values, Mean","50μM, third assay",1.3855
same,"OD490 values, Well 1","50μM, third assay",1.3665
same,"OD490 values, Well 2","50μM, third assay",1.3874
same,"OD490 values, Well 3","50μM, third assay",1.4025
same,"OD490 values, Mean","100μM, first assay",1.0433
same,"OD490 values, Well 1","100μM, first assay",0.7506
same,"OD490 values, Well 2","100μM, first assay",1.0796
same,"OD490 values, Well 3","100μM, first assay",1.2998
same,"OD490 values, Mean","100μM, second assay",1.1143
same,"OD490 values, Well 1","100μM, second assay",1.1121
same,"OD490 values, Well 2","100μM, second assay",1.1285
same,"OD490 values, Well 3","100μM, second assay",1.1022
same,"OD490 values, Mean","100μM, third assay",1.3039
same,"OD490 values, Well 1","100μM, third assay",1.3251
same,"OD490 values, Well 2","100μM, third assay",1.3325
same,"OD490 values, Well 3","100μM, third assay",1.2542
same,IC50,,137 µM
"CCOC(=O)C1=C(C)NC(=S)NC1c1cccc(O)c1 (centres unmarked) [Monastrol, monastrol, reference compound]","OD490 values, Mean","50μM, first assay",1.3431
same,"OD490 values, Well 1","50μM, first assay",1.3844
same,"OD490 values, Well 2","50μM, first assay",1.2943
same,"OD490 values, Well 3","50μM, first assay",1.3505
same,"OD490 values, Mean","50μM, second assay",1.3490
same,"OD490 values, Well 1","50μM, second assay",1.3355
same,"OD490 values, Well 2","50μM, second assay",1.2894
same,"OD490 values, Well 3","50μM, second assay",1.4221
same,"OD490 values, Mean","50μM, third assay",1.5704
same,"OD490 values, Well 1","50μM, third assay",1.5524
same,"OD490 values, Well 2","50μM, third assay",1.4714
same,"OD490 values, Well 3","50μM, third assay",1.6874
same,"OD490 values, Mean","100μM, first assay",1.0251
same,"OD490 values, Well 1","100μM, first assay",1.0639
same,"OD490 values, Well 2","100μM, first assay",1.0037
same,"OD490 values, Well 3","100μM, first assay",1.0076
same,"OD490 values, Mean","100μM, second assay",1.2469
same,"OD490 values, Well 1","100μM, second assay",1.2354
same,"OD490 values, Well 2","100μM, second assay",1.2789
same,"OD490 values, Well 3","100μM, second assay",1.2265
same,"OD490 values, Mean","100μM, third assay",1.4401
same,"OD490 values, Well 1","100μM, third assay",1.4541
same,"OD490 values, Well 2","100μM, third assay",1.4710
same,"OD490 values, Well 3","100μM, third assay",1.3952
same,"OD490, single wells","1μM, first assay",1.2759 and 1.1464 and 1.2212
same,OD490 Mean,"1μM, first assay",1.2145
same,"OD490, single wells","1μM, second assay",1.3847 and 1.2145 and 1.3654
same,OD490 Mean,"1μM, second assay",1.3215
same,"OD490, single wells","1μM, third assay",1.5474 and 1.5368 and 1.4987
same,OD490 Mean,"1μM, third assay",1.5276
same,"OD490, single wells","1.5μM, first assay",1.1568 and 1.0812 and 1.2095
same,OD490 Mean,"1.5μM, first assay",1.1492
same,"OD490, single wells","1.5μM, second assay",1.2478 and 1.3254 and 1.2897
same,OD490 Mean,"1.5μM, second assay",1.2876
same,"OD490, single wells","1.5μM, third assay",1.5823 and 1.5874 and 1.5332
same,OD490 Mean,"1.5μM, third assay",1.5676
same,"OD490, single wells","10μM, first assay",1.1741 and 1.1023 and 1.0651
same,OD490 Mean,"10μM, first assay",1.1138
same,"OD490, single wells","10μM, second assay",1.3582 and 1.6874 and 1.3354
same,OD490 Mean,"10μM, second assay",1.4603
same,"OD490, single wells","10μM, third assay",1.4784 and 1.4585 and 1.6874
same,OD490 Mean,"10μM, third assay",1.5414
same,"OD490, single wells","25μM, first assay",1.2192 and 1.1415 and 1.0377
same,OD490 Mean,"25μM, first assay",1.1328
same,"OD490, single wells","25μM, second assay",1.2214 and 1.3652
same,OD490 Mean,"25μM, second assay",1.3173
same,"OD490, single wells","25μM, third assay",1.6324 and 1.5241 and 1.7241
same,OD490 Mean,"25μM, third assay",1.6269
same,IC50,"Mus musculus, L929",> 150 µM
